Assay results taken from patent publication US4415558A, “CRF And analogs” (The Salk Institute for Biological Studies, priority 1982, dated 1983).
“Also recorded” adds a separate entry of the source. [ ]: non-standard residue; d: D form. Nle = CCCC[C@H](N)C(=O)O

Assays:
[1] = cited from earlier work
[2] = test system: secretion of ACTH and β-endorphin; settings: cited from earlier work
[3] = test system: cultured rat pituitary cells; assay: Secretion of ACTH and β-endorphin by cultured rat pituitary cells; assay type: cell-based; settings: for Stimulation of secretion of ACTH and β-END-LI (in words): general procedure set forth in Example III, in vitro or in vivo not specified
Procedure: (§1) The synthetic and the natural CRF were examined for their effects on the secretion of ACTH and β-endorphin in vitro and the synthetic CRF was also examined in vivo. The high potency of synthetic and natural CRF to stimulate the secretion of ACTH and β-endorphin by cultured rat pituitary cells was measured. […] The secretory response to maximal (>5 nM) concentrations of CRF is at a plateau level. In vivo doses from 30 ng to 3 μg/Kg of body weight rapidly elevated ACTH and β-endorphin-like (β-END-LI) secretions 5-20 fold.

[4] = Blood pressure in rats (mean carotid blood pressure, urethane-anesthetized rat); assay type: in vivo; settings: for Lowering of blood pressure (in words): general procedure set forth in Example III; for Effect upon blood pressure (in words): rats
Procedure: (§2) Plasma levels of ACTH and β-END-LI are elevated for at least 5-20 minutes following the intravenous administration of CRF to nembutal-anesthesized male rats and to quiescent male or female rats with indwelling intravenous cannulae. […] Mean cartoid blood pressure in a urethane-anesthesized rat fell from 87 to 72±2 mm Hg and remained at that level for 30 minutes following an injection equal to 3 μg CRF/Kg body weight; the subsequent administration of an injection equal to 30 μg CRF/Kg body weight lowered mean blood pressure to 42±3 mm Hg for more than 2 hours.

[5] = test system: ACTH and β-END-LI secretion; assay: ACTH and β-END-LI secretion in vivo in rat preparations
Procedure: as §1, §2

Blood pressure in dogs = assay type: in vivo
[6] = urethane-anesthetized rat, subsequent 30 μg CRF/Kg body weight

## CC[C@H](C)[C@H](NC(=O)[C@@H](NC(=O)[C@H](CC(=O)O)NC(=O)[C@H](CC(C)C)NC(=O)[C@H](CC(C)C)NC(=O)[C@H](CC(C)C)NC(=O)[C@H](CCCNC(=N)N)NC(=O)[C@H](CC(N)=O)NC(=O)[C@H](CC(N)=O)NC(=O)[C@H](C)NC(=O)[C@H](C)NC(=O)[C@H](CCC(N)=O)NC(=O)[C@H](CCC(N)=O)NC(=O)[C@H](CCCCN)NC(=O)[C@H](CCC(=O)O)NC(=O)[C@H](CCCCN)NC(=O)[C@H](CCC(=O)O)NC(=O)[C@H](CCC(N)=O)NC(=O)[C@H](CCCCN)NC(=O)[C@H](CCC(=O)O)NC(=O)[C@@H](NC(=O)[C@H](CCC(=O)O)NC(=O)[C@@H](NC(=O)[C@H](CCSC)NC(=O)[C@H](CCCCN)NC(=O)[C@H](CCCNC(=N)N)NC(=O)[C@H](CC(C)C)NC(=O)[C@H](CC(C)C)NC(=O)[C@H](CCC(=O)O)NC(=O)[C@H](CC(C)C)NC(=O)[C@H](CO)NC(=O)[C@H](CC(C)C)NC(=O)[C@H](CC(=O)O)NC(=O)[C@@H](NC(=O)[C@H](CO)NC(=O)[C@@H](NC(=O)[C@@H]1CCCN1C(=O)[C@@H]1CCCN1C(=O)CNC(=O)[C@@H]1CCC(=O)N1)[C@@H](C)CC)[C@@H](C)CC)[C@@H](C)CC)[C@@H](C)CC)[C@@H](C)O)C(N)=O [Sauvagine]
[1]
  Lowering blood pressure in mammals (reported): lowering blood pressure in mammals
[2]
  Stimulating the secretion of ACTH and β-endorphin (reported): stimulating the secretion of ACTH and β-endorphin

## CC[C@H](C)[C@H](NC(=O)[C@H](CC(=O)O)NC(=O)[C@H](CC(C)C)NC(=O)[C@H](CC(C)C)NC(=O)[C@H](CCCCN)NC(=O)[C@H](CCCNC(=N)N)NC(=O)[C@H](CC(N)=O)NC(=O)[C@H](CO)NC(=O)[C@H](Cc1c[nH]cn1)NC(=O)[C@H](C)NC(=O)[C@H](CCC(N)=O)NC(=O)[C@H](CCC(N)=O)NC(=O)[C@H](C)NC(=O)[C@H](CC(C)C)NC(=O)[C@H](CCC(N)=O)NC(=O)[C@H](CC(=O)O)NC(=O)[C@H](C)NC(=O)[C@H](CCCCN)NC(=O)[C@@H](NC(=O)[C@H](CCSC)NC(=O)[C@H](CCC(=O)O)NC(=O)[C@H](CC(C)C)NC(=O)[C@@H](NC(=O)[C@H](CCC(=O)O)NC(=O)[C@H](CCCNC(=N)N)NC(=O)[C@H](CC(C)C)NC(=O)[C@H](CC(C)C)NC(=O)[C@H](Cc1c[nH]cn1)NC(=O)[C@H](Cc1ccccc1)NC(=O)[C@@H](NC(=O)[C@H](CC(C)C)NC(=O)[C@H](CC(=O)O)NC(=O)[C@H](CC(C)C)NC(=O)[C@H](CO)NC(=O)[C@@H](NC(=O)[C@@H]1CCCN1C(=O)[C@@H]1CCCN1)[C@@H](C)CC)[C@@H](C)O)C(C)C)[C@@H](C)O)C(=O)N[C@@H](C)C(N)=O [[des Ser^1 -Gln^2 -Glu^3]-CRF]
[3]
  Stimulation of secretion of ACTH and β-END-LI (in words): stimulates the secretion of ACTH and β-END-LI
[4]
  Lowering of blood pressure (in words): very significant lowering of blood pressure

## CC[C@H](C)[C@H](NC(=O)[C@@H](NC(=O)[C@H](CC(=O)O)NC(=O)[C@H](CC(C)C)NC(=O)[C@H](CC(C)C)NC(=O)[C@H](CC(C)C)NC(=O)[C@H](CCCNC(=N)N)NC(=O)[C@H](CC(N)=O)NC(=O)[C@H](CC(N)=O)NC(=O)[C@H](C)NC(=O)[C@H](C)NC(=O)[C@H](CCC(N)=O)NC(=O)[C@H](CCC(N)=O)NC(=O)[C@H](CCCCN)NC(=O)[C@H](CCC(=O)O)NC(=O)[C@H](CCCCN)NC(=O)[C@H](CCC(=O)O)NC(=O)[C@H](CCC(N)=O)NC(=O)[C@H](CCCCN)NC(=O)[C@H](CCC(=O)O)NC(=O)[C@@H](NC(=O)[C@H](CCC(=O)O)NC(=O)[C@@H](NC(=O)[C@H](CCSC)NC(=O)[C@H](CCCCN)NC(=O)[C@H](CCCNC(=N)N)NC(=O)[C@H](CC(C)C)NC(=O)[C@H](CC(C)C)NC(=O)[C@H](CCC(=O)O)NC(=O)[C@H](CC(C)C)NC(=O)[C@H](CO)NC(=O)[C@H](CC(C)C)NC(=O)[C@H](CC(=O)O)NC(=O)[C@@H](NC(=O)[C@H](CO)NC(=O)[C@@H](NC(=O)[C@@H]1CCCN1C(=O)[C@@H]1CCCN1)[C@@H](C)CC)[C@@H](C)CC)[C@@H](C)CC)[C@@H](C)CC)[C@@H](C)O)C(N)=O [[des pGlu^1 -Gly^2]-sauvagine]
[3]
  Stimulation of secretion of ACTH and β-END-LI (in words): stimulates the secretion of ACTH and β-END-LI
[4]
  Lowering of blood pressure (in words): very significant lowering of blood pressure

## CC[C@H](C)[C@H](NC(=O)[C@H](CC(=O)O)NC(=O)[C@H](CC(C)C)NC(=O)[C@H](CC(C)C)NC(=O)[C@H](CCCCN)NC(=O)[C@H](CCCNC(=N)N)NC(=O)[C@H](CC(N)=O)NC(=O)[C@H](CO)NC(=O)[C@H](Cc1c[nH]cn1)NC(=O)[C@H](C)NC(=O)[C@H](CCC(N)=O)NC(=O)[C@H](CCC(N)=O)NC(=O)[C@H](C)NC(=O)[C@H](CC(C)C)NC(=O)[C@H](CCC(N)=O)NC(=O)[C@H](CC(=O)O)NC(=O)[C@H](C)NC(=O)[C@H](CCCCN)NC(=O)[C@@H](NC(=O)[C@H](CCSC)NC(=O)[C@H](CCC(=O)O)NC(=O)[C@H](CC(C)C)NC(=O)[C@@H](NC(=O)[C@H](CCC(=O)O)NC(=O)[C@H](CCCNC(=N)N)NC(=O)[C@H](CC(C)C)NC(=O)[C@H](CC(C)C)NC(=O)[C@H](Cc1c[nH]cn1)NC(=O)[C@H](Cc1ccccc1)NC(=O)[C@@H](NC(=O)[C@H](CC(C)C)NC(=O)[C@H](CC(=O)O)NC(=O)[C@H](CC(C)C)NC(=O)[C@H](CO)NC(=O)[C@@H](NC(=O)[C@@H]1CCCN1C(=O)[C@@H]1CCCN1C(=O)[C@H](CCC(=O)O)NC(=O)[C@H](CCC(N)=O)NC(=O)[C@@H](N)CO)[C@@H](C)CC)[C@@H](C)O)C(C)C)[C@@H](C)O)C(=O)N[C@@H](C)C(N)=O [natural CRF]
[3]
  Stimulation of ACTH and β-endorphin secretion in vitro (in words): high potency
[3]; listed as isolated CRF
  Stimulation of ACTH and β-endorphin secretion in vitro (in words): stimulate ACTH and β-endorphin activies
[5]
  Stimulation of ACTH and β-END-LI secretion in vivo (in words): stimulate ACTH and β-endorphin activies

## H-SQEPPISIDLSFHLLREVLEMTKADQLAQQAHNNRKLLDIA-NH2 [[Ile^8, Ser^11, Asn^33]-CRF]
[3]
  Stimulation of secretion of ACTH and β-END-LI (in words): stimulates the secretion of ACTH and β-END-LI
[4]
  Lowering of blood pressure (in words): very significant lowering of blood pressure

## H-SQEPPISLDLTFHLLREVIEMTKAEQLAQQAHSNRKLLDIA-NH2 [[Ile^19, Glu^25]-CRF]
[3]
  Stimulation of secretion of ACTH and β-END-LI (in words): stimulates the secretion of ACTH and β-END-LI
[4]
  Lowering of blood pressure (in words): very significant lowering of blood pressure

## H-SQEPPISLDLTFHLLREVLEATKADQLAQQAHTNRKLLDI[Nle]-NH2 [[Ala^21, Thr^33, Nle^41]-CRF]
[3]
  Stimulation of secretion of ACTH and β-END-LI (in words): stimulates the secretion of ACTH and β-END-LI
[4]
  Lowering of blood pressure (in words): very significant lowering of blood pressure

## H-SQEPPISLDLTFHLLREVLE[Nle]TKADQLAQQAYSNRKLLDIA-NH2 [[Nle^21, Tyr^32]-CRF]
[3]
  Stimulation of secretion of ACTH and β-END-LI (in words): stimulates the secretion of ACTH and β-END-LI
[4]
  Lowering of blood pressure (in words): very significant lowering of blood pressure to a greater extent than CRF

## H-SQEPPISLDLTFYLLREVLE[Nle]TKADQLAQQAHSNRKLLDIA-NH2 [[Tyr^13, Nle^21]-CRF]
[3]
  Stimulation of secretion of ACTH and β-END-LI (in words): stimulates the secretion of ACTH and β-END-LI
[4]
  Lowering of blood pressure (in words): very significant lowering of blood pressure to a greater extent than CRF

## H-Ser-Gln-Glu-Pro-Pro-Ile-Ser-Leu-Asp-Leu-Thr-Phe-His-Leu-Leu-Arg-Glu-Val- Leu-Glu-Met-Thr-Lys-Ala-Asp-Gln-Leu-Ala-Gln-Gln-Ala-His-Ser-Asn-Arg-Lys-Leu-Leu-Asp-Ile-Ala-NH2 [synthetic CRF]
[3]; cultured rat pituitary cells
  Maximal concentrations (secretory response at a plateau level): > 5 nM
[3]; cultured rat pituitary cells, concentration giving half-maximal response
  EC50: ~0.1 nM
[3]; cultured rat pituitary cells, concentration giving minimal response
  Minimal response, secretion of ACTH and β-endorphin: about 10 picomolar
[3]
  Stimulation of ACTH and β-endorphin secretion in vitro (in words): stimulate ACTH and β-endorphin activies; also recorded: high potency
[5]
  Stimulation of ACTH and β-END-LI secretion in vivo (in words): stimulate ACTH and β-endorphin activies
[5]; in vivo doses from 30 ng to 3 μg/Kg of body weight
  Elevation of ACTH and β-endorphin-like (β-END-LI) secretions: 5-20 fold
[5]; listed as Synthetic CRF
  Stimulation of ACTH and β-END-LI secretion in vivo (in words): powerful stimulator of ACTH and β-END-LI secretion
[5]; intravenous administration, nembutal-anesthetized male rats and quiescent male or female rats with indwelling intravenous cannulae
  Time for which plasma levels of ACTH and β-END-LI are elevated: 5 to 20 min
[4]; listed as CRF
  Effect upon blood pressure (in words): dramatic effect upon blood pressure
[4]; listed as Synthetic CRF
  Effect upon blood pressure (in words): substantially lower blood pressure for an extended time period
[4]; urethane-anesthetized rat, 3 μg CRF/Kg body weight
  Time blood pressure remained at lowered level: 30 min
[4]; urethane-anesthetized rat, 3 μg CRF/Kg body weight, fell from 87
  Mean carotid blood pressure after injection: 72±2 mm Hg
[4]; [6]
  Duration of lowered mean blood pressure: more than 2 hours
  Mean blood pressure after subsequent injection: 42±3 mm Hg
Blood pressure in dogs
  Effect upon blood pressure (in words): dramatic effect upon blood pressure
